In one experiment the target is T1, ROCK 2 (Homo sapiens, UniProt O75116).
T1 construct: purchased Molecular Devices, Sunnyvale, Calif
Description: Rho kinase assay (IMAP ROCK-II kit, fluorescence polarization). Format: biochemical. To be noted: substrate 200 nM, ATP 10 μM, 60 min at 23° C. (Fluorescence polarisation rises when a labelled molecule tumbles more slowly, as on binding a larger partner.)

A further experiment has as its target ROCK 1 (Homo sapiens, UniProt Q13464). In words: Rho kinase assay (IMAP ROCK-I kit, fluorescence polarization).

SMILES strings stand for the structures. Structures can show the parent of a compound that is named as a salt. Some results are limits rather than exact numbers.

Chain of ROCK 1 (Q13464 whole entry, species assumed): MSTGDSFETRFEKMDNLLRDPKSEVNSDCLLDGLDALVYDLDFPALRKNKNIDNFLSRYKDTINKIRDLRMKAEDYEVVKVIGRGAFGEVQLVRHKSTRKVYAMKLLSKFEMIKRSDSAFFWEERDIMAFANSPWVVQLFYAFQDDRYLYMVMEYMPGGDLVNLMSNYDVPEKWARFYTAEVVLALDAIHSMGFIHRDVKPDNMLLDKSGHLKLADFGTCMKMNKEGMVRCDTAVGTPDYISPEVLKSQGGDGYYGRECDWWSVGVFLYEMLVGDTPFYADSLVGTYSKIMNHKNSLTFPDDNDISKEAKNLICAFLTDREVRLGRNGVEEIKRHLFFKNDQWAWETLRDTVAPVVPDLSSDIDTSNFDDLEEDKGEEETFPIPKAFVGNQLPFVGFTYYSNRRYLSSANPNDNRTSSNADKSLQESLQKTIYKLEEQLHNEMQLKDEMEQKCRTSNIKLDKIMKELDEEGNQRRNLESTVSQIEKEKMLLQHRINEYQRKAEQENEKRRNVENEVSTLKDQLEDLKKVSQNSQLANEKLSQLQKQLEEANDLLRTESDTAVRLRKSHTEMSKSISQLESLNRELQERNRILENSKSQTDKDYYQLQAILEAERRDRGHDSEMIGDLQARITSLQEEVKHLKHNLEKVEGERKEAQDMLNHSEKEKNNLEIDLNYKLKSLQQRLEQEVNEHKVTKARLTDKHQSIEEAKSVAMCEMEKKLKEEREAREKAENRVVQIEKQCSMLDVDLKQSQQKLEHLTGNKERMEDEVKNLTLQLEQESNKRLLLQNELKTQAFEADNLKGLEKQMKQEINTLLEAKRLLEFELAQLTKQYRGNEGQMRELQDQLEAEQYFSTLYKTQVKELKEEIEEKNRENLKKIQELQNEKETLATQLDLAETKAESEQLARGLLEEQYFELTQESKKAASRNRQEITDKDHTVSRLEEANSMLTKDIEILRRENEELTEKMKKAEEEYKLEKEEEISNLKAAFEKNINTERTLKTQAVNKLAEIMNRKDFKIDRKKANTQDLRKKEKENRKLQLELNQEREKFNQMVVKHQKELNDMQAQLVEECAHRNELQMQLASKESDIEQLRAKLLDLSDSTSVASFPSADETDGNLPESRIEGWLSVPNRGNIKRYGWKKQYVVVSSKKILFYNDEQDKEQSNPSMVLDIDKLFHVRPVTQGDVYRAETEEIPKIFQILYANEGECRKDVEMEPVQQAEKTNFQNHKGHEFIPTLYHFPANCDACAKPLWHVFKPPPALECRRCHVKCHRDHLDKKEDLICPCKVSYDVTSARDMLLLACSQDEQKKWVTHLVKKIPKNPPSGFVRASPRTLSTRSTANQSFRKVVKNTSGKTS
T1 sequence (O75116 whole entry, species assumed): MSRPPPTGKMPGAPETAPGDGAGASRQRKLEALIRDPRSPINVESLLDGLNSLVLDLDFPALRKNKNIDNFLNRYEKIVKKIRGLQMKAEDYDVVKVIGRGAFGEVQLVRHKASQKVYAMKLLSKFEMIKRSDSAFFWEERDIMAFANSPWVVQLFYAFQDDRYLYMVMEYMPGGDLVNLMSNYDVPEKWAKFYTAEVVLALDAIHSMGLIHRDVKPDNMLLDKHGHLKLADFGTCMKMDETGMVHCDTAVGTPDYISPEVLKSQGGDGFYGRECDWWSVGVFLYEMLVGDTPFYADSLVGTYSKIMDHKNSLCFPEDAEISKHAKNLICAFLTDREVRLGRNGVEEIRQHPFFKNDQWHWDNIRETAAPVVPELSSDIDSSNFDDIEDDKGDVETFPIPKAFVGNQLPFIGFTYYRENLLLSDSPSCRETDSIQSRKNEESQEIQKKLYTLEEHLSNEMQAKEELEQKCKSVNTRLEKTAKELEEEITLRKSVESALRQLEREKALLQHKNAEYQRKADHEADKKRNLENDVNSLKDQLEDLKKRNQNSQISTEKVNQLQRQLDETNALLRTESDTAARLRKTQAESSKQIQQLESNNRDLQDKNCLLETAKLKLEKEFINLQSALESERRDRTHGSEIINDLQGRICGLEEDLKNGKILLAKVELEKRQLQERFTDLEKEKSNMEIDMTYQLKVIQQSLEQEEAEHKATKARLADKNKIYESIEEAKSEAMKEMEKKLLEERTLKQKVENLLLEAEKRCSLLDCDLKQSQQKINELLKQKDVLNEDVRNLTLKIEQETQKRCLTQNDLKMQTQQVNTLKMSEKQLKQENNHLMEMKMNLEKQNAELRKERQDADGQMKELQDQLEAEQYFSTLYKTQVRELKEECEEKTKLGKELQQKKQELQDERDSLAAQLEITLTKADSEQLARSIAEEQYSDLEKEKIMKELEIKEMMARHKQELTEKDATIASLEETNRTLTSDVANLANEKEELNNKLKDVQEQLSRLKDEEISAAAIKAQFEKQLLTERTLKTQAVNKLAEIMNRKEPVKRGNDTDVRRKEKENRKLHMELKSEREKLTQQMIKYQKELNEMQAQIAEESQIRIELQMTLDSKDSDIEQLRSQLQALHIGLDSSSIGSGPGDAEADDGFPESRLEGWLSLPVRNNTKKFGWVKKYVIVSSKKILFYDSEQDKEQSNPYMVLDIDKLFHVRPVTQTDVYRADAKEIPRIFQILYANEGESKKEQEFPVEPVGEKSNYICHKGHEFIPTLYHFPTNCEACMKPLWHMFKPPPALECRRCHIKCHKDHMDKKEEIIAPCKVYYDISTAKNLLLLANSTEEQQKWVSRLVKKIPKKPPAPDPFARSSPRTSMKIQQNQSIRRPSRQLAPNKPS
Description for ROCK 1: (§1) The rho kinase assays were performed using a Biomek 2000 Robotic Workstation (Beckman Instruments, Palo Alto, Calif.) in a 96-well plate format. The assay was performed utilizing the IMAP ROCK-I and ROCK-II kits (Molecular Devices, Sunnyvale, Calif.) as follows. […] The substrate, enzyme, and ATP dilutions were made with the reaction buffer provided by the vendor. Test compounds were diluted in 10:10 DMSO-ethanol (vol/vol). For the actual assay, the various components were added into black, clear bottom, 96-well plates (Costar, Corning, N.Y.) in a final volume of 20μl per well. After the enzyme reaction (60 min at 23° C.), 60 μl of the binding solution was added per well and incubated for an additional 30 minutes in the dark at 23° C. Fluorescence polarization of the reaction mixtures was then measured on the Analyst™ HT instrument (Molecular Devices, Sunnyvale, Calif.).
Description for ROCK 2: as §1

The term IC50 denotes the concentration needed to halve the response being measured. For `Cc1n[nH]c2ccc(-c3cnc4ccc(NC5CCCNC5)nn34)cc12` (stereo not drawn) [Example 53, [3-(3-methyl-1H-indazol-5-yl)-imidazo[1,2-b]pyridazine-6-yl]-piperidin-3-yl-amine trihydrochloride], the results for the IC50 at ROCK 2 and against ROCK 1 were 0.073 µM and 0.082 µM, respectively.

Regarding `CCCC/C=C/c1cnc2ccc(N3CCOCC3)nn12` [Example 5, (E)-4-(3-(Hex-1-enyl)imidazo[1,2-b]pyridazin-6-yl)morpholine fumarate], the figures for the IC50 against ROCK 2 and against ROCK 1 were > 100 µM and 9.7 µM, respectively.

Turning to `CCCC/C=C/c1cnc2ccc(NCCO)nn12` [Example 42, (E)-2-(3-(Hex-1-enyl)imidazo[1,2-b]pyridazin-6-ylamino)ethanol hydrochloride], the IC50 on ROCK 2 amounted to 34 µM; at ROCK 1 it was 17 µM.

As for `CCCCCCc1cnc2ccc(NCc3ccccn3)nn12` [Example 29, 3-Hexyl-N-(pyridin-2-ylmethyl)imidazo[1,2-b]pyridazin-6-amine hydrochloride], the IC50 on ROCK 2 is 17 µM; at ROCK 1 it was 42 µM.

For `CCC/C=C/c1cnc2ccc(NCCCN3CCOCC3)nn12` [Example 18, (E)-N-(3-Morpholinopropyl)-3-(pent-1-enyl)imidazo[1,2-b]pyridazin-6-amine hydrochloride], the IC50 was 88 µM on ROCK 2 and 43 µM at ROCK 1.

As for `CCCC/C=C/c1cnc2ccc(NCCN(CC)CC)nn12` [Example 40, (E)-N^1,N^1-Diethyl-N^2-(3-(hex-1-enyl)imidazo[1,2-b]pyridazin-6-yl)ethane-1,2-diamine hydrochloride], the IC50 against ROCK 2 and against ROCK 1 was > 100 µM throughout.

On to `CCC/C=C/c1cnc2ccc(NCc3ccccn3)nn12` [Example 19, (E)-3-(Pent-1-enyl)-N-(pyridin-2-ylmethyl)imidazo[1,2-b]pyridazin-6-amine hydrochloride], for which the IC50 was found to be 2 µM against ROCK 2 and 2.1 µM on ROCK 1.

In the case of `Clc1cnc2ccc(NCc3ccccn3)nn12` [Example 13, 3-Chloro-N-(pyridin-2-ylmethyl)imidazo[1,2-b]pyridazin-6-amine], the IC50 came out at 17 µM against ROCK 2 and 25 µM at ROCK 1.

For `COCCNc1ccc2ncc(C)n2n1` [Example 12, N-(2-Methoxyethyl)-3-methylimidazo[1,2-b]pyridazin-6-amine], the IC50 was 97 µM on ROCK 2 and > 100 µM on ROCK 1.

`CCCC/C=C/c1cnc2ccc(NCc3ccccn3)nn12` [Example 9, (E)-3-(Hex-1-enyl)-N-(pyridin-2-ylmethyl)imidazo[1,2-b]pyridazin-6-amine fumarate]: the IC50 amounted to 3.7 µM against ROCK 2 and 7 µM on ROCK 1.

For `Cc1cnc2ccc(NCc3ccccn3)nn12` [Example 15, 3-Methyl-N-(pyridin-2-ylmethyl)imidazo[1,2-b]pyridazin-6-amine hydrochloride], the IC50 against ROCK 2 turned out to be 16 µM; against ROCK 1 it was 67 µM.

In the case of `CCCC/C=C/c1cnc2ccc(N[C@H]3CC[C@@H](O)CC3)nn12` [Example 50, Syn-(E)-4-(3-(Hex-1-enyl)imidazo[1,2-b]pyridazin-6-ylamino)cyclohexanol hydrochloride], the IC50 on ROCK 2 stood at 17 µM; on ROCK 1 it was 6 µM.

In the case of `c1n[nH]cc1-c1cnc2ccc(N3CCOCC3)nn12` [Example 3, 4-(3-(1H-Pyrazol-4-yl)imidazo[1,2-b]pyridazin-6-yl)morpholine], the IC50 was found to be 56 µM at ROCK 2 and 12 µM against ROCK 1.

`c1cn2nc(NCCCN3CCOCC3)ccc2n1` [Example 35, N-(3-Morpholinopropyl)imidazo[1,2-b]pyridazin-6-amine hydrochloride]: the IC50 at ROCK 2 and against ROCK 1 was > 100 µM each time.

`CCCC/C=C/c1cnc2ccc(NCCCN)nn12` [Example 48, (E)-N^1-(3-(Hex-1-enyl)imidazo[1,2-b]pyridazin-6-yl)propane-1,3-diamine]: the IC50 is 58 µM against ROCK 2 and 57 µM against ROCK 1.

Values taken from patent US7820670B2 (Alcon Research, Ltd., priority 2006, dated 2010).
